This note sets out measurements from patent publication US20260069693A1, “UROLITHINS AND T-CELL MEDIATED IMMUNE RESPONSE” (priority 2022, published 2026).

This assay concerns Splenic murine T cells. The assay is described as follows: aCD3/aCD28 stimulation of murine T cells in presence of UA, flow cytometry. The class given is cell-based. The note with it: UA 50 μM + ICG001 10 μM, 48 h. How it is done: Mitochondrial remodelling has been previously associated with alterations in T cell fate (Buck et al., 2016; Yu et al., 2020b). Given the observed dependency of the UA effect on CD8^+ T cells, the inventors wondered whether UA may also directly affect T cell fate commitment. Purified T cells from FVB mice were stimulated with aCD3/aCD28 beads to induce T cell differentiation into effector T cell subsets in the presence or absence of UA for up to 72 hours (FIG. 2A). […] Previously, a rare naïve-like subset of T cells with enhanced stemness capabilities, termed T memory stem cells (TSCM) has been identified (Gattinoni et al., 2009). TSCM are marked by extreme longevity, their ability to self-renew, and potential for immune reconstitution (Gattinoni et al., 2017) which translates into potent anti-tumor immunity. Phenotypically, TSCM represent a subset of minimally differentiated T cells, which share a CD44^loCD62L^hi phenotype with naïve T cells, but are phenotypically distinct by expressing high levels of Sca1 (Gattinoni et al., 2009). […] This was associated with reduced cyclin D1 expression (not shown), in line with previous observations that link TSCM reprogramming to halted proliferation (Gattinoni et al., 2009; Verma et al., 2021).
Splenic murine T cells were isolated from mice aged 6-20 weeks by negative selection with EasySep mouse T cell isolation kit (Stem cell) according to the manufacturer's instructions. To monitor T cell proliferation, purified T cells were loaded with CellTrace Violet (C34557 ThermoFisher Scientific). T cell activation was initiated using αCD3/CD28 activation beads (11456D; ThermoFisher Scientific) at a ratio of 25 μl dynabeads per 0.5×10^6 T-cells. Cells were activated with 25-50 μM Urolithin A (Tocris) or DMSO in T cell activation Medium (RPMI (ThermoFisher Scientific) 10% FBS (South America origin), 10 mM Hepes (Sigma), 1× Non-Essential Amino Acid, 1 mM Sodium Pyruvate, 50 μM B-Mercaptoethanol, 100 U/ml penicillin, 100 μg/ml streptomycin and 2 mM Glutamax (ThermoFisher Scientific) for the indicated durations. In selected experiments, cells were stimulated in the presence of inhibitors, namely TCF1i (ICG-001; SelleckChem; 10 μM) and PGC-1αi (SR-18292, Sigma-Aldrich; 10 μm,). For subsequent analysis, activating beads were magnetically removed prior antibody staining. For human T cells, peripheral blood mononuclear cells were purified with a Ficoll-Paque (GE healthcare) gradient. T cells were enriched with EasySep Human T Cell Isolation Kit (StemCell) and activated with dynabead Human T-Activator CD3/CD28 for T Cell Expansion and Activation Kit (11131D; ThermoFisher Scientific), similar to murine T cell stimulation. […]
For flow cytometric analysis of mitochondria and lysosomes 500 μl of Mitotracker Red (200 nM; ThermoFisher) or Lysotracker Red DND-99 (75 nM; ThermoFisher) were applied followed by surface staining. To study changes in mitochondrial membrane potential, Mitoprobe TMRM kit (ThermoFisher) was used according to the manufacturer's instructions. Cell proliferation was assessed by CellTrace Violet (Invitrogen, C34557) at a concentration of 5 μM according to manufacturer's instructions. For human samples, cells were stained as described above with Fixable Viability Dye-eF780, αCD95-BV421 (DX2; 562616), αCD62L-PE (DREG-56; 555544), αCCR7-AF700 (150503; 561143), αCD45RO-APC (UCHL; 559865), αCD45RA-FITC (HI100; 555488), αCD8-PE-CF594 (RPA-T8; 562282) and αCD4-BV786 (OKT4; 566806) from BD.
On the technique in general: Flow cytometry measures light scatter and fluorescence of single cells or particles in a stream.

On to `O=C1[C@H](Cc2ccc(O)cc2)N2C(=O)CCN(C(=O)NCc3ccccc3)[C@H]2CN1Cc1cccc2ccccc12` [ICG001, reference compound], for which the “UA-induced TSCM formation in vitro under TCF-1 block” value is “abrogated”.
